Results on 6 compounds are retold here after patent US20250049904A1, “IMMUNOSTIMULATORY COMPOSITIONS” (VICTORIA LINK LIMITED, priority 2021, published 2025).

Holding throughout (assay type): in vivo, C57BL/6 mice
Test [1] relates to tissue-resident memory T cells (TRM cells). The test is described as follows: LPX-mRNA vaccination of mice i.v.; antigen-specific TRM, TEM and TCM cells in liver and spleen by flow cytometry. The following applies: agonist in LPX-mOVA vaccine, OT-I transfer, liver 30 days later; for proportion of liver TRM among all vaccine-induced antigen-specific T cells (TRM cell-inducing capability): relative to α-GalCer vaccine. A general note: A flow cytometer gives signals particle by particle.

The next test deals with liver TRM cells. The test is described as follows: LNP-mRNA vaccines, prime and boost; TRM cells in liver and spleen. The following applies: i.m. and i.v. Here is the method:
Vaccines were prepared with mRNA encoding OVA encapsulated in LNPs (LNP-mOVA-CI058). Groups of mice (n=5) were vaccinated twice, with an interval of either two weeks, or eight weeks, and then liver and spleen were collected for analysis of T cell responses 28 days after the last dose. (A) Percentages of antigen-specific TRM cells, TEM cells and TCM cells are shown for liver. Black bars: TRM cells; white bars: TEM cells; grey bars: TCM cells. (B) Percentages of antigen-specific TRM cells, TEM cells and TCM cells are shown for spleen. Black bars: TRM cells; white bars: TEM cells; grey bars: TCM cells. (C) Mean number of TRM cells in liver for each treatment group (±SEM); dots represent individual mice. *P<0.05.
Vaccines were prepared with mRNA encoding OVA encapsulated in LNPs (LNP-mOVA-CI536). Groups (n=9-10) of naïve C57BL/6 mice (i.e., no OT-I transfer) were vaccinated once, or twice with an interval of two weeks, with the liver and spleen collected for analysis of T cell responses 28 days after the last dose. (A) Numbers of antigen-specific TRM cells for liver. […] Data were log transformed and analysed by One-way ANOVA with Tukey's post test **P<0.01, ***P<0.001, ****P<0.0001. […]
LNP-mRNA vaccines comprising an ionizable lipid are an established formulation strategy to deliver mRNA vaccines safely and effectively. Therefore, the capacity of LNP-mRNA vaccines containing CI536 and the ionizable lipid DLin-MC3-DMA to stimulate liver TRM was evaluated. […] The memory T cell responses were assessed 28 days after the prime and boost so the impact of the second dose could be assessed. […]
Lymphocytes were stained with monoclonal antibodies for: CD8a (53-6.7), Ly5.1 (A20), CD44 (IM7), CXCR6 (SA051D1), CX3CR1 (SA011F11), from BioLegend (Australian Biosearch, Karrinyup, WA. Australia), and CD62L (MEL-14) and CD69 (H1.2F3), from eBioscience (Jomar Life Research, Scoresby, VIC, Australia). […] Single-color positive control samples were used to adjust compensation and cells were analyzed by flow cytometry on a LSR Fortessa (BD Biosciences), or LSRII SORP using Flowjo software (Tree Star Inc.).

Test [2] relates to tissue-resident memory T cells (TRM cells). Put plainly: LPX-mRNA vaccination of mice i.v.; antigen-specific TRM, TEM and TCM cells in liver and spleen by flow cytometry. The note with it: LPX-mOVA vaccines i.v., OT-I cell transfer, 28 days after vaccination. How it is done: FIG. 1 provides a graphical representation showing that LPX-mRNA vaccines containing CI058 induce high levels of liver TRM cells. Liposomes were prepared with DOTMA and DOPE lipids and complexed with mRNA encoding chicken ovalbumin (OVA) to give vaccine LPX-mOVA. Additional vaccines were prepared by including either the prototypical NKT cell agonist α-GalCer (LPX-mOVA-α-GalCer) or the derivative CI058, which has BODIPY attached via an —S in the 6 position of the galactose (LPX-mOVA-CI058). Recipient C57BL/6 mice were transferred 50,000 naïve OVA-specific TCR-transgenic CD8+ T cells (OT-I cells) to enhance the precursor frequency of antigen-specific T cells to aid detection of vaccine-induced responses. A day later, groups of mice (n=5-6) were vaccinated intravenously (0.08 nmol) with the different vaccines; a naive mouse was left untreated. After 28 days, mice were killed and liver and spleen collected for analysis of induced T cell response by flow cytometry. Antigen-specific cells were identified using fluorescent MHC/peptide tetramers containing the targeted CD8^+ T cell epitope recognised by OT-I cells, and expression of Ly5.1, a congenic marker expressed by the OT-I mouse strain and not recipient C57BL/6 mice. The antigen-specific cells were further characterised as resident-memory T cells (TRM cells; CD8^+ Ly5.1^+ […] CD62L^low cells), effector memory T cells (TEM cells; CD8^+ Ly5.1^+ CD44^+ CD69^− CD62L^low cells) or central memory cells (TCM cells; CD8^+ Ly5.1^+ CD44^+ CD69^− CD62Lhigh cells). (A) Percentages of TRM, TEM and TCM OT-I cells in each treatment group in liver. Mean±SEM for each T cell subset are shown; statistical analysis relates only to pairwise comparisons of the percentage of TRM cells between the treatment groups. Black bars: TRM cells; white bars: TEM cells; grey bars: TCM cells. *P<0.05, **P<0.01, ***P<0.001, ****P<0.0001. One-way ANOVA. (B) Percentages of RM, TEM and TCM OT-I cells in each treatment group in spleen. (C) Mean number of TRM cells in liver for each treatment group (±SEM); dots represent individual mice. Black bars: TRM cells; white bars: TEM cells; grey bars: TCM cells. *P<0.05, **P<0.01, ***P<0.001, ****P<0.0001. One-way ANOVA.
Dose response of LPX-mOVA-α-GalCer versus LPX-mOVA-CI058 vaccines. Analysis was in C57BL/6 mice, without transfer of OT-I cells, so endogenous T cell responses were monitored on a normal T cell repertoire. Groups of 5 mice were used, and vaccines were administered intravenously. After 28 days, mice were killed and liver tissue collected for analysis of induced T cell response by flow cytometry. Antigen-specific cells were identified using fluorescent MHC/peptide tetramers, and further characterised as resident-memory T cells (TRM CD8^+ CD44^+ CD69^+ CXCR6^+ CD49a^+ CD62L^low cells), effector memory T cells (TEM CD8^+ CD44^+ CD69^− KLRG1^+ CXCR3^+ CD62L^low cells) or central memory cells (TCM CD8^+ CD44^+ CD69^− CD62L^high cells). At the same timer, NKT cells in the liver were also evaluated using fluorescent CD1d/α-GalCer tetramers. These were characterised for expression of different markers of activation, including PD-1 (only the latter is shown here). White circles: LPX-mOVA-α-GalCer; black circles: LPX-mOVA-CI058. (A) Graph showing mean number of TRM cells in liver for each treatment group (±SEM) overdose range. ****P<0.0001. (B) Graph showing mean level of expression of the “invariant” NKT cell-associated TCR for each treatment group (±SEM), defined as level of binding of fluorescent CD1d/α-GalCer tetramers and expressed as mean fluorescence index. ****P<0.0001 (C) Graph showing mean level of expression of PD-1 on NKT cells for each treatment group (±SEM). **P<0.01
To examine whether a prodrug mechanism is involved in enhanced TRM cell induction, LPX-mOVA-CI058 vaccines were compared to vaccines containing different NKT cell agonist prodrugs. […]

With `CCCCCCCCCCCCCCCCCCCCCCCCCC(=O)N[C@@H](CO[C@H]1OC(CSCCCCCNC(=O)CCC2=C3C(C)=CC(C)=[N+]3[B-](F)(F)n3c(C)cc(C)c32)[C@H](O)C(O)[C@@H]1O)[C@H](O)[C@H](O)CCCCCCCCCCCCCC` (stereo partly drawn) [CI534], in test [1], the “overall TRM cell accumulation in the liver” value is recorded as “All but two of the 6'S-substituted agonists (CI534, CI540)” and the “proportion of liver TRM among all vaccine-induced antigen-specific T cells (TRM cell-inducing capability)” value (shortened to “proportion … (TRM cell-inducing capability)”) was “significantly enhanced relative to vaccines with α-GalCer”.

As to `CCCCCCCCCCCCCCCCCCCCCCCCCC(=O)N[C@@H](CO[C@H]1O[C@H](CSCC(N)=O)[C@H](O)[C@H](O)[C@H]1O)[C@H](O)[C@H](O)CCCCCCCCCCCCCC` [CI536, (2S,3S,4R)-1-(6-Deoxy-6-((2-amino-2-oxoethyl)thio)-α-D-galactopyranosyloxy)-2-hexacosanoylamino-3,4-octadecandiol], in the test with liver TRM cells (LNP with DLin-MC3-DMA, 28 days), the “proportion of TEM in the spleen” value is reported as “higher proportion of TEM”. In addition, in the test on liver TRM cells (LNP with DLin-MC3-DMA, prime or prime-boost, no T cell transfer, 28 days), the “proportion of TRM in liver compared to spleen” value is “increased proportion of liver TRM in the liver as compared to the spleen”. The “number of liver TRM” value with liver TRM cells (boosted groups, two-week interval, vs PBS control) was “highest number of liver TRM compared to PBS control group”.

As to `CCCCCCCCCCCCCCCCCCCCCCCCCC(=O)N[C@@H](CO[C@H]1OC(CSCCCCCNC(=O)OCc2c3ccccc3cc3ccccc23)[C@H](O)C(O)[C@@H]1O)[C@H](O)[C@H](O)CCCCCCCCCCCCCC` (stereo partly drawn) [CI540], in test [1], the “overall TRM cell accumulation in the liver” value is reported as “All but two of the 6'S-substituted agonists (CI534, CI540)”.

Regarding `CCCCCCCCCCCCCCCCCCCCCCCCCC(=O)N[C@@H](CO[C@H]1OC(CN)[C@H](O)C(O)C1O)[C@H](O)[C@H](O)CCCCCCCCCCCCCC` (stereo partly drawn) [CN168], in test [1], the “proportion … (TRM cell-inducing capability)” value was “significantly enhanced relative to vaccines with α-GalCer”.

As to `CCCCCCCCCCCCCCCCCCCCCCCCCC(=O)N[C@@H](CO[C@H]1O[C@H](CS)[C@H](O)[C@H](O)[C@H]1O)[C@H](O)[C@H](O)CCCCCCCCCCCCCC` [CN237], the “proportion … (TRM cell-inducing capability)” value in test [1] is “significantly enhanced relative to vaccines with α-GalCer”.

Turning to `CCCCCCCCCCCCCCCCCCCCCCCCCC(=O)N[C@@H](CO[C@H]1O[C@H](CO)[C@H](O)[C@H](O)[C@H]1O)[C@H](O)[C@H](O)CCCCCCCCCCCCCC` [α-GalCer, reference compound], the “proportion of TRM cells among antigen-specific T cells in liver and spleen” value in test [2] is “low proportions of TRM cells in liver and spleen”.
